Measured values taken from US10287265B2, “Enantiomers of 8-hydroxyquinoline derivatives and the synthesis thereof” (AVIDIN Co. Ltd., priority 2015, dated 2019).
“Also recorded” adds a separate entry of the source.

Columns and labels:
[1] = system: BALB/c ear skin graft on C57BL/6 recipient mice; experiment: Mouse skin transplantation, graft rejection scoring; assay type: in vivo; settings: 5 mg/kg once every day from transplantation; Example 2 orally, tacrolimus intraperitoneal; scoring at day 9 and day 10
Description: Mouse skin transplantation is a standard method to assay host T cell responses to MHC-disparate donor antigens, which protocol was followed in the present example (Garrod and Cahalan; 2008). Briefly, WT C57BL/6 recipient mice (8-12 weeks old) and WT BALB/c donor mice (8-12 weeks old) were anesthetized with a combination of 10 mg/kg Xylazine and 100 mg/kg Ketamine administered by i.p. injection and 0.05 mg/kg Buprenorphine was administered by subcutaneous injection for analgesia. Ear skin (1.0 cm2) from the WT BALB/c donor mouse was grafted onto the flank of the WT C57BL/6 recipient. The implanted skin (graft) was covered with a sterile bandage, which was removed on day 7 post-transplant.
Recipients received either no treatment (controls), or treated with compound according to Example 2 orally at 5 mg/kg dose, once every day until the end of the experiment from the day of transplantation. […]
Different scores were used to define the quality of the grafts: intact grafts (Score 0), early stages of rejection (Score 1-4, corresponding to first clear signals of graft rejection: 1; >25% rejection rate: 2; >50% rejection rate: 3; >75% rejection rate: 4) up to complete graft rejection (Score 5). […] Average scores with SEM were calculated for each group.

[2] = biological target: T1, human caspase 3 enzyme (Homo sapiens, UniProt P42574); experiment: Caspase 3 peptidase activity, Ac-DEVD-AMC substrate, fluorescence; assay type: biochemical
T1 construct: host or cells: E. coli
T1 sequence (P42574 29-175 limits assumed): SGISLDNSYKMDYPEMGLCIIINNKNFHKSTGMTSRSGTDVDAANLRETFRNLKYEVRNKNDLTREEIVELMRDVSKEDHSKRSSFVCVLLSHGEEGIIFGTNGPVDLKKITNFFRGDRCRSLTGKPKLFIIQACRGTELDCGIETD
T1 sequence (P42574 176-277 limits assumed): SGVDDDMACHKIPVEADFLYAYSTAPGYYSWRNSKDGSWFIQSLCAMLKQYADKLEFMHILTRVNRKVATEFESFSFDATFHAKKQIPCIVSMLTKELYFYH
Description: Throughout the experiments, human caspase 3 enzyme produced in E. coli was used as previously described (Mittl PRE, Marco S D, Krebs J F, Karanewsky D S, Priestle J P, Tomaselli K J and Grutter M G (1997) Structure of Recombinant Human CPP32 in Complex with the Tetrapeptide Acetyl-Asp-Val-Ala-Asp Fluoromethyl Ketone. J Biol Chem. 272: 6539-6547). […] After the addition of […] Ac-DEVD-AMC substrate, the reaction ran for 60 min. The amount of generated AMC (7-amino-4-methylcoumarine), which gives information about the enzyme activity, was detected by fluorescence at 360/465 nm.

[3] = system: VEGF gene; experiment: Gene expression in primary astrocytes by qRT-PCR; assay type: cell-based, rat; settings: in the cells
Description: (§1) Pure astrocyte culture was obtained from neonatal rats according to the protocol found in literature (Protocols for Neural Cell Culture 2001, pp 117-127. ch 9. Ruth Cole, Jean de Vellis. Preparation of Astrocyte, Oligodendrocyte, and Microglia Cultures from Primary Rat Cerebral Cultures). Astrocytes (1 million) were cultured in 100 mm TC-treated culture dishes (Orange Scientific, Belgium) in an incubator set at 37° C. and 5% CO2 with humid air. The R-enantiomeric derivative according to Example 2 was added to cells in two final concentrations: 330 nM and 1000 nM. Cells were also treated with 1000 nM PBT2 which bears the basic structure of the R-enantiomer according to Example 2 (8-hydroxy-quinoline ring) but contains conformational differences and was developed for the treatment of neurodegenerative disorders (Pub. No.: WO/2004/007461). Treatments were carried out with a 100 μM DMSO-based stock solution. Control cells were treated with the same amount of DMSO without the agent. Each treatment was conducted in three separate culture dishes. After treatment, cells were incubated at 37° C. for 3 h, then the medium was removed, cells were washed with PBS and total RNA was extracted from cells with the Accuzol™ Total RNA Extraction Solution (Bioneer, Daejeon, South Korea), according to the manufacturer's protocol. cDNA transcription was carried out with the High Capacity cDNA Reverse Transcription Kit (Life Technologies, Foster City, Calif., USA). During the test, the expression of four genes (PGK1, EPO, HMOX-1, VEGF) controlled by HIF1a was determined by qRT-PCR, with HPRT gene serving as a control. Relative expression of genes in treated samples was compared to untreated controls. The PCR was conducted with a LightCycler® Nano Instrument (Roche, Budapest, Hungary) in the presence of UPL (Universal Probe Library) probes (HPRT: 95, HMOX1: 4, EPO: 16, VEGF: 1, PGK1: 66), specific primers (HPRT1: 5′-gaccggttctgtcatgtcg-3′, HPRT2: 5′-[…]-3′; HMOX1-1: 5′-[…]-3′, HMOX1-2: 5′-ctgcagctcctcaaacagc-3′; EPO1: 5′-[…]-3′, EPO2: 5′-ccttctgcacagcccatt-3′; VEGF1: 5′-[…]-3′, VEGF2: 5′-[…]-3′; PGK1-1: 5′-[…]-3′, PGK1-2: 5′-gacttggctccattgtcca-3′) in 20 μl PCR reaction volume with 20 ng cDNA template and 10 μl Lightcycler DNA Probes Master (5×) Reagent Kit (Roche) according to the following protocol: activation of enzyme at 95° C. for 10 min, 50 cycles: denaturation at 95° C. for 15 sec, hybridization and polymerization, then detection at 60° C. for 30 sec.

[4] = system: PGK1 gene; experiment: Gene expression in primary astrocytes by qRT-PCR; assay type: cell-based, rat; settings: in the cells
Description: as §1

[5] = system: HMOX-1 gene; experiment: Gene expression in primary astrocytes by qRT-PCR; assay type: cell-based, rat; settings: 3 h, Example 2 at 330 nM and 1000 nM, PBT2 at 1000 nM
Description: as §1

[6] = system: EPO gene; experiment: Gene expression in primary astrocytes by qRT-PCR; assay type: cell-based, rat; settings: 3 h, Example 2 at 330 nM and 1000 nM, PBT2 at 1000 nM
Description: as §1

inhibition of caspase-3 enzyme (concentration range in words) [2]: inhibits in micromolar concentration
reduction of the activity of caspase 3 enzyme ([2]; applied concentration of 10 μM): 74%
Structure (SMILES): Cc1ccnc(N[C@H](c2ccc(C(F)(F)F)cc2)c2ccc3cccnc3c2O)n1 [Example 2, 7-[(R)-[(4-Methylpyrimidin-2-yl)amino][4-(trifluoromethyl)phenyl]methyl]quinolin-8-ol]
skin graft rejection score (0-5) [1]: smaller score values both on day 9 and on day 10
increase of VEGF gene activity [3]: capable to increase the gene activity
increase of PGK-1 gene activity [4]: capable to increase the gene activity
activation of HMOX-1 gene expression [5]: capable to increase the gene activity; also recorded: caused the induction of HMOX-1 in astrocytes; also recorded: dose-dependent and robust activation
activation of EPO gene expression [6]: capable to increase the gene activity; also recorded: highest inductive effect; also recorded: dose-dependent and robust activation
